Test results: ChEMBL document CHEMBL4316625, “Double prodrugs of a fosmidomycin surrogate as antimalarial and antitubercular agents” (Bioorg Med Chem Lett, 2019)
≈ marks a conversion by molar mass, not a printed value.

What was measured:
[1] = Cytotoxicity in human MRC5 cells assessed as reduction in cell viability incubated for 24 hrs by resazurin-based cytotoxicity assay
[2] = system: Mycobacterium tuberculosis; experiment: Antitubercular activity against Mycobacterium tuberculosis H37Rv reduction in bacterial multiplication incubated for 7 days by luminometric assay; type: functional; conditions: 168 h
[3] = system: Plasmodium falciparum; experiment: Antiplasmodial activity against Plasmodium falciparum K1 infected in human erythrocytes assessed as reduction in parasite multiplication incubated for 72 hrs by Malstat method; type: functional, organism-based; conditions: K1, 72 h
[4] = Oral bioavailability in healthy human at 500 mg; type: ADME, organism-based; conditions: in vivo

| SMILES | CC50 at 24 h [1] | MIC [2] | IC50 [3] | bioavailability [4] |
| --- | --- | --- | --- | --- |
| CN(OC(=O)c1ccccc1)C(=O)CCCP(=O)(OCOC(=O)C(C)(C)C)OCOC(=O)C(C)(C)C | > 64 µM | 50 µM (≈ 26.5 µg/mL) | 1.08 µM | – |
| CCCCCCCCC(=O)ON(C)C(=O)CCCP(=O)(OCOC(=O)C(C)(C)C)OCOC(=O)C(C)(C)C | > 64 µM | 50 µM (≈ 28.3 µg/mL) | 1.41 µM | – |
| CN(OCc1ccc([N+](=O)[O-])o1)C(=O)CCCP(=O)(OCOC(=O)C(C)(C)C)OCOC(=O)C(C)(C)C | 26.3 µM | 12.5 µM (≈ 6.88 µg/mL) | 4.42 µM | – |
| CCNC(=O)ON(C)C(=O)CCCP(=O)(OCOC(=O)C(C)(C)C)OCOC(=O)C(C)(C)C | 25.9 µM | > 50 µM | 2.52 µM | – |
| CN(O)C(=O)CCCP(=O)(OCOC(=O)C(C)(C)C)OCOC(=O)C(C)(C)C | > 64 µM | > 50 µM | – | – |
| CN(OCc1ccc([N+](=O)[O-])s1)C(=O)CCCP(=O)(OCOC(=O)C(C)(C)C)OCOC(=O)C(C)(C)C | 20.5 µM | 12.5 µM (≈ 7.08 µg/mL) | 4.69 µM | – |
| CN(OCc1ccc([N+](=O)[O-])cc1)C(=O)CCCP(=O)(OCOC(=O)C(C)(C)C)OCOC(=O)C(C)(C)C | 26.5 µM | > 50 µM | 8.79 µM | – |
| CN(OC(=O)Nc1ccccc1)C(=O)CCCP(=O)(OCOC(=O)C(C)(C)C)OCOC(=O)C(C)(C)C | 33.4 µM | – | 3.34 µM | – |
| CCCCCCCCC(=O)Oc1ccc(CON(C)C(=O)CCCP(=O)(OCOC(=O)C(C)(C)C)OCOC(=O)C(C)(C)C)cc1 | > 64 µM | 50 µM (≈ 33.6 µg/mL) | 19 µM | – |
| CN(OC(=O)NCc1ccccc1)C(=O)CCCP(=O)(OCOC(=O)C(C)(C)C)OCOC(=O)C(C)(C)C | 27.9 µM | > 50 µM | 0.64 µM | – |
| CC(=O)ON(C)C(=O)CCCP(=O)(OCOC(=O)C(C)(C)C)OCOC(=O)C(C)(C)C | > 64 µM | – | 1.34 µM | – |
| O=CN(O)CCCP(=O)([O-])O.[Na+] [FOSMIDOMYCIN SODIUM] | > 64 µM | > 64 µM | – | 20 to 40% |
| CN(OC(=O)OCc1ccccc1)C(=O)CCCP(=O)(OCOC(=O)C(C)(C)C)OCOC(=O)C(C)(C)C | > 42 µM | > 50 µM | > 36 µM | – |
